Test results as given in BigSolDB 2.1.

O=C(O)/C=C/c1cccc(O)c1
solubility (mole fraction)
Details | in ethanol | in ethyl acetate | in isobutanol | in isopropanol | in methanol | in methyl acetate | in n-butanol | in n-propanol | in n-propyl acetate
293.15 K | 0.0594 | 0.0177 | 0.0317 | 0.0611 | 0.0516 | 0.0189 | 0.0474 | 0.0493 | 0.0155
298.15 K | 0.0632 | 0.0201 | 0.0351 | 0.0662 | 0.0557 | 0.0212 | 0.0513 | 0.0533 | 0.0184
303.15 K | 0.0687 | 0.0228 | 0.0397 | 0.0724 | 0.0611 | 0.0239 | 0.0566 | 0.0585 | 0.0212
308.15 K | 0.0742 | 0.0256 | 0.0449 | 0.0794 | 0.0669 | 0.0276 | 0.0617 | 0.064 | 0.0236
313.15 K | 0.0802 | 0.0294 | 0.0502 | 0.0859 | 0.0731 | 0.0315 | 0.0677 | 0.0701 | 0.0269
318.15 K | 0.087 | 0.0329 | 0.0561 | 0.0933 | 0.0801 | 0.0358 | 0.0741 | 0.0766 | 0.0302
323.15 K | 0.0949 | 0.0377 | 0.0628 | 0.101 | 0.0887 | 0.0402 | 0.0806 | 0.0842 | 0.035
328.15 K | 0.103 | 0.0438 | 0.0706 | 0.109 | 0.0995 | 0.0458 | 0.0887 | 0.093 | 0.041
333.15 K | 0.114 | 0.0489 | 0.0802 | 0.12 | 0.113 | – | 0.0989 | 0.104 | 0.0471
